This note sets out measurements from PMC7287882, “Dual miRNases for Triple Incision of miRNA Target: Design Concept and Catalytic Performance” (Molecules, 2020).

Data set [1] is classed as in vitro ADME, bovine. As to conditions: serum. The procedure:
Stability of miRNA-21-DC and miRNA-155-DC and corresponding ONs was carried out in reaction mixtures (90 µL) containing DCs or ONs at a concentration of 0.1 mg/mL in Dulbecco’s Modified Eagle Medium (DMEM) with 10% FBS at 37 °C for 24 h. Aliquots (10 μL) were taken after 0, 0.5, 1, 2, 4, 8, and 24 h of incubation. The reaction was stopped by adding 10 μL of 8 M urea, and the reaction mixture was immediately frozen in liquid nitrogen. DCs and ONs cleavage products were analyzed in 12% PAAG/8M urea. To identified products, gels were stained with the Stains-All dye and photographed using a gel documentation system.
Figure S12. Stability of Dual conju gat es (DCs) and corresponding Du al oligonucleotides (ONs)
targeted to miR-155 and miR-21 in cell medium DMEM supplemented with 10% FBS . Im a g e s
of the 12% PAAG/8M urea, stained with Stains-Alland kinetics of degradation of DCs and ONs .
Conjugates and oligonucleotides at a concentration of 0. 1 mg/mL were incubated in DMEM
supplemented with 10% FBS at 37 °C for 24 h.
(1 picture or pasted object on this page, not shown here)

The test system of the next data set is miR-21. Kind of data set: Ribonuclease activity assay, cleavage of miR-21. The data set is classed as biochemical. As to conditions: buffer (2) 20 mM Tris-HCl pH 7.8, 40 mM KCl, 8 mM MgCl2, 1 mM DTT, 0.02 mg/mL BSA, miRNA 1 µM, DC 20 µM, 37 °C. The procedure:
The ribonuclease activity of DCs was studied under two different buffer conditions: buffer (1) contained 50 mM Tris-HCl, pH 7.0, 200 mM KCl, 1 mM EDTA, which imitates intracellular conditions (e.g., pH and potassium ions concentration) and was used in a number of studies previously; and buffer (2) contained 20 mM Tris-HCl, pH 7.8, 40 mM KCl, 8 mM MgCl2, 1 mM DTT, 0.02 mg/mL BSA, which is recommended for in vitro reactions with RNase H (Figure 3 and Figure 4).
Figure 3 Kinetics of cleavage of 5′-[^32P]-labeled miR-17, miR-18a, miR-155, miR-21 and miR-21_1 by corresponding DCs in the buffer (1), containing 50 mM Tris-HCl, pH 7.0, 200 mM KCl and 1 mM EDTA. (a–e) Radioautographs of 18% denaturing PAAG showing the cleavage products of miR-17, miR-18a, miR-155, miR-21 and miR-21_1, respectively. miRNA (1 µM) and corresponding DC (20 µM) were incubated at 37 °C for 72 h. Lanes Im and T1—imidazole ladder and partial RNA digestion with RNase T1, respectively; control–miRNA was incubated in the absence of the conjugate. The incubation time (in hours) is show at the top. SS gap–single-stranded region of miRNA formed upon hybridization with DC; (f) Kinetics of miRNAs cleavage by DCs depending on the incubation time. Data are presented as mean ± s.e.
Figure 4 Kinetics of cleavage of 5′-[^32P]-labeled miR-17, miR-18a, miR-155, miR-21, and miR-21_1 by corresponding DCs in the buffer (2), containing 20 mM Tris-HCl, pH 7.8, 40 mM KCl, 8 mM MgCl2, 1 mM DTT, 0.02 mg/mL BSA. (a–e) Radioautographs of 18% denaturing PAAG showing the cleavage products of miR-17, miR-18a, miR-155, miR-21 and miR-21_1, respectively. miRNA (1 µM) and corresponding DC (20 µM) were incubated at 37 °C for 72 h. Lanes Im and T1–imidazole ladder and partial RNA digestion with RNase T1, respectively; control–miRNA was incubated in the absence of the conjugate. The incubation time (in hours) is shown at the top. SS gap–single-stranded region of miRNA formed upon hybridization with DC; (f) Kinetics of miRNAs cleavage by DCs. Data are presented as mean ± s.e.
The reaction mixture (10 µL) contained 800 cpm (Cherenkov’s counting) of [^32P]-miRNA, 1 μM unlabeled miRNA, one of the conjugates at a concentration 10 or 20 μM and one of the buffers: 50 mM Tris-HCl, pH 7.0, 200 mM KCl, 1 mM EDTA–buffer (1) or 20 mM Tris-HCl, pH 7.8, 40 mM KCl, 8 mM MgCl2, 1 mM DTT, 0.02 mg/mL BSA–buffer (2). The mixture was incubated at 37 °C for 0–72 h and quenched by precipitation of RNA with 2% LiClO4 in acetone (90 µL). RNA was collected by centrifugation and dissolved in loading buffer (8 M urea, 0.025% bromophenol blue, 0.025% xylene cyanol). RNA cleavage products were analyzed in 18% PAAG/8M urea using TBE (100 mM Tris-borate, pH 8.3, 2 mM EDTA) as running buffer. To identify cleavage sites, an imidazole and T1-ladders produced by partial RNA cleavage with 2 M imidazole buffer (pH 7.0) and with RNase T1 [68], respectively, were run in parallel. To obtain quantitative data, gels were dried and analyzed using Molecular Imager FX. The total extent of RNA cleavage and the extent of RNA cleavage at each individual site were determined by using Quantity One software v.4.1 (Bio-Rad, Hercules, CA, USA).

The test system of a further data set is miR-18a. Kind of data set: Ribonuclease activity assay at different concentrations of MgCl2. Format: biochemical. As to conditions: 50 mM Tris-HCl pH 7.0, 100 mM KCl, 1 mM DTT, 0.02 mg/mL BSA, 37 °C, 48 h; for Cleavage: miRNA 1 µM, DC 20 µM, mean ± s.e. The procedure: In order to understand the effect of Mg^2+ ions on the efficiency and specificity of miRNA cleavage by DCs, miR-18a was incubated with the matching DC in the buffer containing 50 mM Tris-HCl, pH 7.0, 100 mM KCl, 1 mM DTT, 0.02 mg/mL BSA, but with different Mg^2+ concentration varied from 0 to 15 mM.
Reaction with different concentration of MgCl2 was performed in reaction mixtures (8 µL) containing 320 cpm (Cherenkov’s counting) of [^32P]-miR-18a, 1 μM unlabeled miRNA, 20 µM of miR-18a-DC in buffers contained 100 mM KCl, 50 mM Tris-HCl pH 7.0, 1mM DTT, 0.02 mg/mL BSA and MgCl2 at concentration 0, 2, 4, 8 or 15 mM at 37 °C for 48 h. RNA cleavage products were collected and analyzed as described above.

Take “ACCCCTAT–linker 1–[GRLRL]2–linker 2–TTAGCATTAA [miRNA-155-DC, Dual oligonucleotide-peptide conjugate targeted to miR-155: catalytic peptide [LRLRG]2 between two 2-aminoadenine-containing oligodeoxyribonucleotides]”: the “half-life time (τ1/2) in 10% FBS” value in data set [1] is reported as 9.01 ± 0.5 h.
In the case of “TCAACATC–linker 1–[GRLRL]2–linker 2–GATAAGCTA [miRNA-21-DC, Dual oligonucleotide-peptide conjugate targeted to miR-21: catalytic peptide [LRLRG]2 between two 2-aminoadenine-containing oligodeoxyribonucleotides]”, the “Total Cleavage” value in the data set on miR-21 (2 h) was 4%; in the data set with miR-21 (6 h), 13%; in the data set with miR-21 (24 h) it was 30%; with miR-21 (48 h) it was 30%; in the data set with miR-21 (72 h) it was 34%. Besides, the “half-life time (τ1/2) in 10% FBS” value in data set [1] is 8 ± 0.1 h.
Consider “TATCTGC–linker 1–[GRLRL]2–linker 2–ATGCACCTTA [miRNA-18a-DC, Dual oligonucleotide-peptide conjugate targeted to miR-18a: catalytic peptide [LRLRG]2 between two 2-aminoadenine-containing oligodeoxyribonucleotides]”, for which the Cleavage is on record as 26.4±4.0% in the data set with miR-18a (Mg2+ 0 mM); 28.8±3.9% in the data set on miR-18a (Mg2+ 2 mM); 24.3±2.7% in the data set on miR-18a (Mg2+ 4 mM); 23.1±3.1% in the data set with miR-18a (Mg2+ 8 mM); 27.2±4.3% in the data set on miR-18a (Mg2+ 15 mM). The “ribonuclease activity of DC (cleavage), unaffected by addition of Mg2+” value in the data set on miR-18a (Mg2+ varied from 0 to 15 mM) is given as “approximately 26%”.
